# Test results as given in patent US20240376094A2, “SELECTIVE BCL-XL PROTAC COMPOUNDS AND METHODS OF USE” (Les Laboratoires Servier, priority 2021, published 2024).
# Assays:
# Assay type in all cases: cell-based
# MOLT-4 cells = assay: MOLT-4 cell viability, CTG assay; settings: Homo sapiens, MOLT-4, 48 h
# Method in brief: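 Viability read as total ATP luminescence (CTG) after 48 h compound treatment, 11 points at 5-fold spacing in triplicate, cells in RPMI 1640/10% FBS. IC50 is the concentration halving signal relative to control, four-parameter fit, averaged over at least 2 experiments.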
# Bcl-xL = target: T1, Bcl-xL (Homo sapiens, UniProt Q07817); assay: HCT116 Bcl-xL degradation, capillary-based immunoassay (WES); settings: HCT116, 24 h, 9-point serial dilution
# T1 construct: Measured levels of Bcl-xL protein of HCT116 cells treated with the tested compounds; host or cells: HCT116
# T1 sequence (Q07817 whole entry): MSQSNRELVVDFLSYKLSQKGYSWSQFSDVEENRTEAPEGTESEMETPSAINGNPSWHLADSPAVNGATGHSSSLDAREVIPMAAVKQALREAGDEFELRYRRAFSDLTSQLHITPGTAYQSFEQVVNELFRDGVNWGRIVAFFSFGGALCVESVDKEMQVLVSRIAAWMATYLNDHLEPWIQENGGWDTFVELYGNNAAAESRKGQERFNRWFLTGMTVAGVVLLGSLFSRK
# Method in brief: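 Bcl-xL protein level by capillary WES immunoassay in HCT116 lysates, as % of untreated after cofilin normalization. Compound exposure was 24 h at 10 and 100 nM and/or a 9-point series, in quadruplicate. Four-parameter fitting gave the DC50.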
# [1] = tested on: EBC-1 lung cancer cell line; assay: EBC-1 cell proliferation, CellTiter-Glo assay; settings: Homo sapiens, 120 h; Ebc-1 cell viability, CTG assay, 5 days of treatment; read-out: CTG 5 day Ebc1 GI50
# Method in brief: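 CellTiter-Glo read-out after 5-day compound treatment, normalised to untreated cells, with GI50 derived by four-parameter logistic regression. Ten concentrations spanning 0.508 nM–10 μM were added to 1000 EBC-1 cells per well the day after seeding. Assays required at least one cell doubling versus Day 0.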
# HiBiT-tagged BCL-xL = target: T2, HiBiT-tagged BCL-xL (Homo sapiens, UniProt Q07817); assay: NCI-H1650 BCL-xL protein levels, Nano-Glo HiBiT Lytic Detection; settings: NCI-H1650 expressing HiBiT-tagged BCL-xL, overnight incubation, read-out: Bcl-xl HIBIT NCIH1650 DC50
# T2 construct: expressed in transfected cells; host or cells: NCI-H1650 (ATCC No. CRL-5883), engineered HiBiT cell line
# T2 sequence (Q07817 whole entry): as above
# Method in brief: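 HiBiT luminescence after cell lysis with LgBiT/furimazine reagent reported BCL-xL levels, expressed relative to untreated wells and fitted with a four-parameter logistic equation. Engineered NCI-H1650 cells were exposed overnight at 37° C to compound at final 0.508 nM-10 μM (10 points, triplicate plates).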
SMILES,IC50 (MOLT-4 cells) [nM],DC50 (Bcl-xL) [nM],GI50 [1] [nM],DC50 (HiBiT-tagged BCL-xL) [nM]
"Cc1ncsc1-c1ccc([C@H](C)NC(=O)C2C[C@@H](O)CN2C(=O)C(NC(=O)COCCOCCOCCOCCN(C)CCOC23CC4(C)CC(C)(CC(Cn5ncc(-c6ccc(N7CCCc8c7nnc(Nc7nc9ccccc9s7)c8C)nc6C(=O)O)c5C)(C4)C2)C3)C(C)(C)C)cc1 (stereo in doubt) [Example 87, 6-[3-(1,3-benzothiazol-2-ylamino)-4-methyl-6,7-dihydro-5H-pyrido[2,3-c]pyridazin-8-yl]-3-[1-[[3-[2-[2-[2-[2-[2-[2-[[(1S)-1-[(2S,4R)-4-hydroxy-2-[[(1S)-1-[4-(4-methylthiazol-5-yl)phenyl]ethyl]carbamoyl]pyrrolidine-1-carbonyl]-2,2-dimethyl-propyl]amino]-2-oxo-ethoxy]ethoxy]ethoxy]ethoxy]ethyl-methyl-amino]ethoxy]-5,7-dimethyl-1-adamantyl]methyl]-5-methyl-pyrazol-4-yl]pyridine-2-carboxylic acid]",34.7,> 316,216,> 1670
"Cc1ncsc1-c1ccc(CNC(=O)[C@@H]2C[C@@H](O)CN2C(=O)[C@@H](NC(=O)C2(F)CC2)C(C)(C)C)c(OCCCCCCCCCCN(C)CCOC23CC4(C)CC(C)(CC(Cn5ncc(-c6ccc(N7CCCc8c7nnc(Nc7nc9ccccc9s7)c8C)nc6C(=O)O)c5C)(C4)C2)C3)c1 [Example 73, 6-[3-(1,3-benzothiazol-2-ylamino)-4-methyl-6,7-dihydro-5H-pyrido[2,3-c]pyridazin-8-yl]-3-[1-[[3-[2-[10-[2-[[[(2S,4R)-1-[(2S)-2-[(1-fluorocyclopropanecarbonyl)amino]-3,3-dimethyl-butanoyl]-4-hydroxy-pyrrolidine-2-carbonyl]amino]methyl]-5-(4-methylthiazol-5-yl)phenoxy]decyl-methyl-amino]ethoxy]-5,7-dimethyl-1-adamantyl]methyl]-5-methyl-pyrazol-4-yl]pyridine-2-carboxylic acid]",24,7.69,186,13
"Cc1ncsc1-c1ccc(CNC(=O)[C@@H]2C[C@@H](O)CN2C(=O)[C@@H](NC(=O)C2(F)CC2)C(C)(C)SCCCCCCCCCCCCN(C)CCOC23CC4(C)CC(C)(CC(Cn5ncc(-c6ccc(N7CCCc8c7nnc(Nc7nc9ccccc9s7)c8C)nc6C(=O)O)c5C)(C4)C2)C3)cc1 [Example 79, 6-[3-(1,3-benzothiazol-2-ylamino)-4-methyl-6,7-dihydro-5H-pyrido[2,3-c]pyridazin-8-yl]-3-[1-[[3-[2-[12-[(2R)-2-[(1-fluorocyclopropanecarbonyl)amino]-3-[(2S,4R)-4-hydroxy-2-[[4-(4-methylthiazol-5-yl)phenyl]methylcarbamoyl]pyrrolidin-1-yl]-1,1-dimethyl-3-oxo-propyl]sulfanyldodecyl-methyl-amino]ethoxy]-5,7-dimethyl-1-adamantyl]methyl]-5-methyl-pyrazol-4-yl]pyridine-2-carboxylic acid]",6.06,0.399,66,> 1670
"Cc1ncsc1-c1ccc([C@H](C)NC(=O)[C@@H]2C[C@@H](O)CN2C(=O)[C@@H](NC(=O)CCCCCCCCCCCCCN(C)CCOC23CC4(C)CC(C)(CC(Cn5ncc(-c6ccc(N7CCCc8c7nnc(Nc7nc9ccccc9s7)c8C)nc6CO)c5C)(C4)C2)C3)C(C)(C)C)cc1 [Example 155, (2S,4R)-1-[(2S)-2-[14-[2-[[3-[[4-[6-[3-(1,3-benzothiazol-2-ylamino)-4-methyl-6,7-dihydro-5H-pyrido[2,3-c]pyridazin-8-yl]-2-(hydroxymethyl)-3-pyridyl]-5-methyl-pyrazol-1-yl]methyl]-5,7-dimethyl-1-adamantyl]oxy]ethyl-methyl-amino]tetradecanoylamino]-3,3-dimethyl-butanoyl]-4-hydroxy-N-[(1S)-1-[4-(4-methylthiazol-5-yl)phenyl]ethyl]pyrrolidine-2-carboxamide]",22.1,,431,> 1670

# Further molecules by falling IC50 (MOLT-4 cells), results first:
IC50 (MOLT-4 cells) [nM],DC50 (Bcl-xL) [nM],GI50 [1] [nM],DC50 (HiBiT-tagged BCL-xL) [nM],SMILES
67,,869,18,"Cc1cc(N(CCCCN(C)C(=O)CCCCCCCCCCC(=O)N[C@H](C(=O)N2C[C@H](O)C[C@H]2C(=O)N[C@@H](C)c2ccc(-c3scnc3C)cc2)C(C)(C)C)c2ccc(-c3cnn(CC45CC6(C)CC(C)(C4)CC(OCCN(C)C)(C6)C5)c3C)c(C(=O)N(C)C)n2)nnc1Nc1nc2ccccc2s1 [Example 128, N′-[4-[[6-(1,3-benzothiazol-2-ylamino)-5-methyl-pyridazin-3-yl]-[5-[1-[[3-[2-(dimethylamino)ethoxy]-5,7-dimethyl-1-adamantyl]methyl]-5-methyl-pyrazol-4-yl]-6-(dimethylcarbamoyl)-2-pyridyl]amino]butyl]-N-[(1S)-1-[(2S,4R)-4-hydroxy-2-[[(1S)-1-[4-(4-methylthiazol-5-yl)phenyl]ethyl]carbamoyl]pyrrolidine-1-carbonyl]-2,2-dimethyl-propyl]-N′-methyl-dodecanediamide]"
16.7,13.3,179,> 1670,"Cc1ncsc1-c1ccc(CNC(=O)[C@@H]2C[C@@H](O)CN2C(=O)[C@@H](NC(=O)C2(F)CC2)C(C)(C)C)c(OCCCCCCCCCN(C)CCOC23CC4(C)CC(C)(CC(Cn5ncc(-c6ccc(N7CCCc8c7nnc(Nc7nc9ccccc9s7)c8C)nc6C(=O)O)c5C)(C4)C2)C3)c1 [Example 72, 6-[3-(1,3-benzothiazol-2-ylamino)-4-methyl-6,7-dihydro-5H-pyrido[2,3-c]pyridazin-8-yl]-3-[1-[[3-[2-[9-[2-[[[(2S,4R)-1-[(2S)-2-[(1-fluorocyclopropanecarbonyl)amino]-3,3-dimethyl-butanoyl]-4-hydroxy-pyrrolidine-2-carbonyl]amino]methyl]-5-(4-methylthiazol-5-yl)phenoxy]nonyl-methyl-amino]ethoxy]-5,7-dimethyl-1-adamantyl]methyl]-5-methyl-pyrazol-4-yl]pyridine-2-carboxylic acid]"
13.7,,18,> 1670,"Cc1ncsc1-c1ccc([C@H](C)NC(=O)[C@@H]2C[C@@H](O)CN2C(=O)[C@@H](NC(=O)C2CCN(C(=O)CCCCCCCCCCCN(C)CCOC34CC5(C)CC(C)(CC(Cn6ncc(-c7ccc(N8CCCc9c8nnc(Nc8nc%10ccccc%10s8)c9C)nc7C(=O)O)c6C)(C5)C3)C4)CC2)C(C)(C)C)cc1 [Example 86, 6-[3-(1,3-benzothiazol-2-ylamino)-4-methyl-6,7-dihydro-5H-pyrido[2,3-c]pyridazin-8-yl]-3-[1-[[3-[2-[[12-[4-[[(1S)-1-[(2S,4R)-4-hydroxy-2-[[(1S)-1-[4-(4-methylthiazol-5-yl)phenyl]ethyl]carbamoyl]pyrrolidine-1-carbonyl]-2,2-dimethyl-propyl]carbamoyl]-1-piperidyl]-12-oxo-dodecyl]-methyl-amino]ethoxy]-5,7-dimethyl-1-adamantyl]methyl]-5-methyl-pyrazol-4-yl]pyridine-2-carboxylic acid]"
8.34,0.28,134,3,"Cc1ncsc1-c1ccc(CNC(=O)[C@@H]2C[C@@H](O)CN2C(=O)[C@@H](NC(=O)C2(F)CC2)C(C)(C)C)c(OCCCCCCCCCCCN(C)CCOC23CC4(C)CC(C)(CC(Cn5ncc(-c6ccc(N7CCCc8c7nnc(Nc7nc9ccccc9s7)c8C)nc6C(=O)O)c5C)(C4)C2)C3)c1 [Example 76, 6-[3-(1,3-benzothiazol-2-ylamino)-4-methyl-6,7-dihydro-5H-pyrido[2,3-c]pyridazin-8-yl]-3-[1-[[3-[2-[11-[2-[[[(2S,4R)-1-[(2S)-2-[(1-fluorocyclopropanecarbonyl)amino]-3,3-dimethyl-butanoyl]-4-hydroxy-pyrrolidine-2-carbonyl]amino]methyl]-5-(4-methylthiazol-5-yl)phenoxy]undecyl-methyl-amino]ethoxy]-5,7-dimethyl-1-adamantyl]methyl]-5-methyl-pyrazol-4-yl]pyridine-2-carboxylic acid]"
4.54,> 316,167,> 1670,"Cc1ncsc1-c1ccc(CNC(=O)[C@@H]2C[C@@H](O)CN2C(=O)[C@@H](NC(=O)C2(F)CC2)C(C)(C)C)c(OCCCCCCCCCCCCCCCCN(C)CCOC23CC4(C)CC(C)(CC(Cn5ncc(-c6ccc(N7CCCc8c7nnc(Nc7nc9ccccc9s7)c8C)nc6C(=O)O)c5C)(C4)C2)C3)c1 [Example 77, 6-[3-(1,3-benzothiazol-2-ylamino)-4-methyl-6,7-dihydro-5H-pyrido[2,3-c]pyridazin-8-yl]-3-[1-[[3-[2-[16-[2-[[[(2S,4R)-1-[(2S)-2-[(1-fluorocyclopropanecarbonyl)amino]-3,3-dimethyl-butanoyl]-4-hydroxy-pyrrolidine-2-carbonyl]amino]methyl]-5-(4-methylthiazol-5-yl)phenoxy]hexadecyl-methyl-amino]ethoxy]-5,7-dimethyl-1-adamantyl]methyl]-5-methyl-pyrazol-4-yl]pyridine-2-carboxylic acid]"
